The target in the first test is Histamine H3 receptor (Homo sapiens, UniProt Q9Y5N1).
Sequence of Histamine H3 receptor (Q9Y5N1 whole entry): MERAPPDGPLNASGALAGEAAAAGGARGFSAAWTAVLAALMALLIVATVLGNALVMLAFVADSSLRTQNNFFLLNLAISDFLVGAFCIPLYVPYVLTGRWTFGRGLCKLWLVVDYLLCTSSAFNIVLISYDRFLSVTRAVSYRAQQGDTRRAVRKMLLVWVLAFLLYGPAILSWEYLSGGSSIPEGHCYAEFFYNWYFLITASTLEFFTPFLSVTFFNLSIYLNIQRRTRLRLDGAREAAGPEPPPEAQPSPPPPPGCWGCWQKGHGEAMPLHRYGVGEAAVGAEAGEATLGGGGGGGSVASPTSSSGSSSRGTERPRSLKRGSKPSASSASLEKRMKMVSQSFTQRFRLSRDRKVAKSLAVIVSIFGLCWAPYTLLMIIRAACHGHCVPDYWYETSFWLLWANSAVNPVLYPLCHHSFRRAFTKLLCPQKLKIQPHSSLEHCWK
Test: not given
Sequence of Melanin-concentrating hormone receptor 1 (Q99705 whole entry): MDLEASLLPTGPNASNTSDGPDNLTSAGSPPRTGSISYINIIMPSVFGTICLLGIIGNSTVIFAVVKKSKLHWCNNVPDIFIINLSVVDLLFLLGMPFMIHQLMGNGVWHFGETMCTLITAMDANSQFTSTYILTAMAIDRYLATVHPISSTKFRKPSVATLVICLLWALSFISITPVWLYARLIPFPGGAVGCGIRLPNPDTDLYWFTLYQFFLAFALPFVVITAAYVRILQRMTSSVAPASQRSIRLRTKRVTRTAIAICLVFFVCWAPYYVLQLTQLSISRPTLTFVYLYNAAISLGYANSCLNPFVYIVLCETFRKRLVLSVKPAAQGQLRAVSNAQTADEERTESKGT
Usually Ki stands for the dissociation constant of the complex between target and ligand, obtained from inhibition or displacement. As to `Cc1ccc(CN2CCC(NC(=O)N(CC(=O)C(C)(C)O)Cc3ccc(-c4cccc(C#N)c4)cc3)CC2)cc1`, the Ki was 2800 nM.
Still for that read-out and setting: next, `Cc1ccc(CN2CCC(NC(=O)N(CC(=O)C(C)(C)O)Cc3ccc(-c4ccccc4)cc3)CC2)cc1`: more than 1000 nM; `CCC(CO)(CO)NC(=O)N(CCC1CCN(Cc2ccc(C)cc2)CC1)Cc1ccc(-c2ccc(F)cc2)cc1`: more than 1000 nM; `Cc1ccc(CN2CCC(CCN(Cc3ccc(-c4ccc(F)cc4)cc3)C(=O)NC(C)(C)CO)CC2)cc1`: more than 1000 nM.
In turn, `COc1ccc(-c2ccc(CN(CCC3CCN(Cc4ccc(C)cc4)CC3)C(=O)NC(C)C)cc2)cc1` displayed a Ki of 6510 nM. This lies in the single-digit micromolar range.
Still for that read-out and setting: next, `COc1ccccc1-c1ccc(CN(CCC2CCN(Cc3ccc(C)cc3)CC2)C(=O)NC(C)C)cc1`: more than 1000 nM; `Cc1ccc(CN2CCC(CCN(Cc3ccc(-c4cccc(C#N)c4)cc3)C(=O)NC(C)C)CC2)cc1`: 853 nM; `CC(=O)OCC(C)(C)NC(=O)N(CCC1CCN(Cc2ccc(C)cc2)CC1)Cc1ccc(-c2ccc(F)cc2)cc1`: 2080 nM.
Still for that read-out and setting: next, `CC(=O)OCC(C)(C)NC(=O)N(CCC1CCN(Cc2ccc(C)cc2)CC1)Cc1ccc(-c2cccc(C#N)c2)cc1`: 1630 nM; `CC(=O)OCC(C)(C)NC(=O)N(CCC1CCN(Cc2ccc(C)cc2)CC1)Cc1ccc(-c2ccccc2)cc1`: 1130 nM.
On the same count and under the same terms, with `CCC(CO)(CO)NC(=O)N(CCC1CCN(Cc2ccc(C)cc2)CC1)Cc1ccc(-c2ccc(OC)cc2)cc1` the figure was 899 nM.
Turning to `CCC(COC(C)=O)(COC(C)=O)NC(=O)N(CCC1CCN(Cc2ccc(C)cc2)CC1)Cc1ccc(-c2ccccc2)cc1`, the Ki turned out to be 807 nM.
Still for that read-out and setting: next, `COc1ccccc1-c1ccc(CN(CCC2CCN(Cc3ccc(C)cc3)CC2)C(=O)NC(C)(C)CO)cc1`: 6680 nM; `COc1ccc(-c2ccc(CNC(=O)NC3CCN(Cc4ccc(C)cc4)CC3)cc2)cc1`: 5150 nM; `COc1ccccc1-c1ccc(CNC(=O)NC2CCN(Cc3ccc(C)cc3)CC2)cc1`: more than 1000 nM.
Regarding `Cc1ccc(CN2CCC(NC(=O)NCc3ccc(-c4cccc(C#N)c4)cc3)CC2)cc1`, the inhibitory constant (Ki) was more than 1000 nM.
Still for that read-out and setting: next, `Cc1ccc(CN2CCC(NC(=O)N(CC(=O)C(C)(C)O)Cc3ccc(-c4ccc(F)cc4)cc3)CC2)cc1`: 1420 nM; `COc1ccc(-c2ccc(CN(CC(=O)C(C)(C)O)C(=O)NC3CCN(Cc4ccc(C)cc4)CC3)cc2)cc1`: 581 nM.
Still for that read-out and setting: next, `CCC(CO)(CO)NC(=O)N(CCC1CCN(Cc2ccc(C)cc2)CC1)Cc1ccc(-c2ccccc2OC)cc1`: 2140 nM.
In turn, `CCC(CO)(CO)NC(=O)N(CCC1CCN(Cc2ccc(C)cc2)CC1)Cc1ccc(-c2cccc(C#N)c2)cc1` had a Ki of 8800 nM.
The molecule `CCC(COC(C)=O)(COC(C)=O)NC(=O)N(CCC1CCN(Cc2ccc(C)cc2)CC1)Cc1ccc(-c2ccc(OC)cc2)cc1` displayed an inhibition constant (Ki) of 779 nM.
On the same count and under the same terms, with `COc1ccc(-c2ccc(CN(CCC3CCN(Cc4ccc(C)cc4)CC3)C(=O)NC(C)(C)COC(C)=O)cc2)cc1` the figure was 1010 nM; with `COc1ccccc1-c1ccc(CN(CCC2CCN(Cc3ccc(C)cc3)CC2)C(=O)NC(C)(C)COC(C)=O)cc1`, 1050 nM.
Still for that read-out and setting: with `CCC(COC(C)=O)(COC(C)=O)NC(=O)N(CCC1CCN(Cc2ccc(C)cc2)CC1)Cc1ccc(-c2ccc(F)cc2)cc1` the figure was 548 nM; with `Cc1ccc(CN2CCC(CCN(Cc3ccc(-c4cccc(C#N)c4)cc3)C(=O)NC(C)(C)CO)CC2)cc1`, 1160 nM; with `Cc1ccc(CN2CCC(NC(=O)NCc3ccc(-c4ccccc4)cc3)CC2)cc1`, more than 1000 nM.
On the same count and under the same terms, with `CCC(COC(C)=O)(COC(C)=O)NC(=O)N(CCC1CCN(Cc2ccc(C)cc2)CC1)Cc1ccc(-c2ccccc2OC)cc1` the figure was 629 nM; with `CCC(COC(C)=O)(COC(C)=O)NC(=O)N(CCC1CCN(Cc2ccc(C)cc2)CC1)Cc1ccc(-c2cccc(C#N)c2)cc1`, 1310 nM.
As for `COc1ccccc1-c1ccc(CN(CC(=O)C(C)(C)O)C(=O)NC2CCN(Cc3ccc(C)cc3)CC2)cc1`, the Ki came out at 9990 nM.
Same read-out and setting: next, `Cc1ccc(CN2CCC(CCN(Cc3ccc(-c4ccccc4)cc3)C(=O)NC(C)C)CC2)cc1`: more than 1000 nM; `COc1ccc(-c2ccc(CN(CCC3CCN(Cc4ccc(C)cc4)CC3)C(=O)NC(C)(C)CO)cc2)cc1`: 9260 nM.

Another test addresses Melanin-concentrating hormone receptor 1 (Homo sapiens, UniProt Q99705). Nature of the test: biochemical. The test is classed as cell-based, HEK293.
Description: Displacement of [3H]SNAP-7941 from human MCHR1 expressed in HEK cells
Turning to `Cc1ccc(CN2CCC(NC(=O)N(CC(=O)C(C)(C)O)Cc3ccc(-c4ccccc4)cc3)CC2)cc1`, the Ki is more than 1000 nM.
Still for that read-out and setting: next, `COc1ccccc1-c1ccc(CN(CCC2CCN(Cc3ccc(C)cc3)CC2)C(=O)NC(C)C)cc1`: more than 1000 nM; `COc1ccc(-c2ccc(CN(CC(=O)C(C)(C)O)C(=O)NC3CCN(Cc4ccc(C)cc4)CC3)cc2)cc1`: more than 1000 nM.
